Data on eleven compounds can be found in ChEMBL document CHEMBL3132750, “4-Chlorocolchicine derivatives bearing a thiourea side chain at the C-7 position as potent anticancer agents” (Medchemcomm, 2014).

pIC50: −log10 of the molar value.

Test system in one data set: not listed separately
Nature of the data set: Metabolic stability in BALB/c mouse hepatic microsomes assessed per mg of microsomal protein at 1 umol/L preincubated for 5 mins by LC-MS/MS method. It is filed as ADME, Liver, Microsome. To be noted: 1 µM.
For the compound `COc1c(Cl)c2c(c(OC)c1OC)-c1ccc(OC)c(=O)cc1[C@@H](NC(=S)Nc1nc[nH]n1)CC2`, the Intrinsic clearance was 88 µL/min/mg.
In turn, `CCS(=O)(=O)N[C@H]1CCc2c(Cl)c(OC)c(OC)c(OC)c2-c2ccc(OC)c(=O)cc21` registered an Intrinsic clearance of 5 µL/min/mg.
With `COc1c(Cl)c2c(c(OC)c1OC)-c1ccc(OC)c(=O)cc1[C@@H](NC(=S)Nc1n[nH]c(C)n1)CC2`, the Intrinsic clearance was found to be 223 µL/min/mg.

A further data set relates to HCT-116. Kind of data set: Cytotoxicity against human HCT116 cells assessed as inhibition of cell proliferation after 96 hrs. It is filed as functional, cell-based. The note with it: HCT-116, 96 h.
As usually defined, the pIC50 is the IC50 on a negative log10 scale, so that one unit is a factor of ten. Turning to `COc1c(Cl)c2c(c(OC)c1OC)-c1ccc(OC)c(=O)cc1[C@@H](NC(=S)N1CCC1)CC2`, the negative-log IC50 (pIC50) is 8.08.
In the case of `COc1c(Cl)c2c(c(OC)c1OC)-c1ccc(OC)c(=O)cc1[C@@H](NC(=S)Nc1nc[nH]n1)CC2`, the negative-log IC50 (pIC50) is 9.52.
On to `CCS(=O)(=O)N[C@H]1CCc2c(Cl)c(OC)c(OC)c(OC)c2-c2ccc(OC)c(=O)cc21`, for which the pIC50 was 7.40.
On to `COc1c(Cl)c2c(c(OC)c1OC)-c1ccc(OC)c(=O)cc1[C@@H](NC(=S)Nc1cncnc1)CC2`, for which the negative-log IC50 (pIC50) was 6.75.
As to `CCCCNC(=S)N[C@H]1CCc2c(Cl)c(OC)c(OC)c(OC)c2-c2ccc(OC)c(=O)cc21`, the pIC50 is 8.74.
Same read-out and setting: with `COc1c(Cl)c2c(c(OC)c1OC)-c1ccc(OC)c(=O)cc1[C@@H](NC(=S)N1CCCC1)CC2` the figure was 8.14; with `COc1c(Cl)c2c(c(OC)c1OC)-c1ccc(OC)c(=O)cc1[C@@H](NC(=S)Nc1n[nH]c(C)n1)CC2`, 9.30; with `CCCCCCNC(=S)N[C@H]1CCc2c(Cl)c(OC)c(OC)c(OC)c2-c2ccc(OC)c(=O)cc21`, 6.77.
Turning to `COc1c(Cl)c2c(c(OC)c1OC)-c1ccc(OC)c(=O)cc1[C@@H](NC(=S)Nc1ccc(C#N)cc1)CC2`, the pIC50 is 7.60.
Still for that read-out and setting: then `COc1cccc(NC(=S)N[C@H]2CCc3c(Cl)c(OC)c(OC)c(OC)c3-c3ccc(OC)c(=O)cc32)c1`, with 8.85; and `COc1c(Cl)c2c(c(OC)c1OC)-c1ccc(OC)c(=O)cc1[C@@H](NC(=S)NCCO)CC2`, with 7.05.

A further data set has as its system HT-29. Nature of the data set: Cytotoxicity against human HT-29 cells assessed as inhibition of cell proliferation after 96 hrs. It is filed as functional, cell-based. The note with it: HT-29, 96 h.
Take `COc1c(Cl)c2c(c(OC)c1OC)-c1ccc(OC)c(=O)cc1[C@@H](NC(=S)N1CCC1)CC2`: the pIC50 is 8.24.
Take `COc1c(Cl)c2c(c(OC)c1OC)-c1ccc(OC)c(=O)cc1[C@@H](NC(=S)Nc1nc[nH]n1)CC2`: the pIC50 is 9.70.
Consider `CCS(=O)(=O)N[C@H]1CCc2c(Cl)c(OC)c(OC)c(OC)c2-c2ccc(OC)c(=O)cc21`, for which the pIC50 is 7.37.
Still for that read-out and setting: then `COc1c(Cl)c2c(c(OC)c1OC)-c1ccc(OC)c(=O)cc1[C@@H](NC(=S)Nc1cncnc1)CC2`, with 6.81; and `CCCCNC(=S)N[C@H]1CCc2c(Cl)c(OC)c(OC)c(OC)c2-c2ccc(OC)c(=O)cc21`, with 9.00; and `COc1c(Cl)c2c(c(OC)c1OC)-c1ccc(OC)c(=O)cc1[C@@H](NC(=S)N1CCCC1)CC2`, with 8.12.
On the same count and under the same terms, then `COc1c(Cl)c2c(c(OC)c1OC)-c1ccc(OC)c(=O)cc1[C@@H](NC(=S)Nc1n[nH]c(C)n1)CC2`, with 9.52; and `CCCCCCNC(=S)N[C@H]1CCc2c(Cl)c(OC)c(OC)c(OC)c2-c2ccc(OC)c(=O)cc21`, with 6.75; and `COc1c(Cl)c2c(c(OC)c1OC)-c1ccc(OC)c(=O)cc1[C@@H](NC(=S)Nc1ccc(C#N)cc1)CC2`, with 8.19.
On the same count and under the same terms, then `COc1cccc(NC(=S)N[C@H]2CCc3c(Cl)c(OC)c(OC)c(OC)c3-c3ccc(OC)c(=O)cc32)c1`, with 9.30.
Take `COc1c(Cl)c2c(c(OC)c1OC)-c1ccc(OC)c(=O)cc1[C@@H](NC(=S)NCCO)CC2`: the negative-log IC50 (pIC50) is 7.28.

A further data set relates to A549. Kind of data set: Cytotoxicity against human A549 cells assessed as inhibition of cell proliferation after 96 hrs. The data set is classed as functional, cell-based. The note with it: A549, 96 h.
As to `COc1c(Cl)c2c(c(OC)c1OC)-c1ccc(OC)c(=O)cc1[C@@H](NC(=S)N1CCC1)CC2`, the pIC50 was 7.48.
`COc1c(Cl)c2c(c(OC)c1OC)-c1ccc(OC)c(=O)cc1[C@@H](NC(=S)Nc1nc[nH]n1)CC2`: the pIC50 was 9.30.
Regarding `CCS(=O)(=O)N[C@H]1CCc2c(Cl)c(OC)c(OC)c(OC)c2-c2ccc(OC)c(=O)cc21`, the negative logarithm of the IC50 (pIC50) is 7.32.
Same read-out and setting: with `COc1c(Cl)c2c(c(OC)c1OC)-c1ccc(OC)c(=O)cc1[C@@H](NC(=S)Nc1cncnc1)CC2` the figure was 6.03; with `CCCCNC(=S)N[C@H]1CCc2c(Cl)c(OC)c(OC)c(OC)c2-c2ccc(OC)c(=O)cc21`, 8.13; with `COc1c(Cl)c2c(c(OC)c1OC)-c1ccc(OC)c(=O)cc1[C@@H](NC(=S)N1CCCC1)CC2`, 7.91.
Consider `COc1c(Cl)c2c(c(OC)c1OC)-c1ccc(OC)c(=O)cc1[C@@H](NC(=S)Nc1n[nH]c(C)n1)CC2`, for which the negative logarithm of the IC50 (pIC50) was 8.77.
`CCCCCCNC(=S)N[C@H]1CCc2c(Cl)c(OC)c(OC)c(OC)c2-c2ccc(OC)c(=O)cc21`: the pIC50 was 6.67.
`COc1c(Cl)c2c(c(OC)c1OC)-c1ccc(OC)c(=O)cc1[C@@H](NC(=S)Nc1ccc(C#N)cc1)CC2`: the negative logarithm of the IC50 (pIC50) was 7.17.
Still for that read-out and setting: with `COc1cccc(NC(=S)N[C@H]2CCc3c(Cl)c(OC)c(OC)c(OC)c3-c3ccc(OC)c(=O)cc32)c1` the figure was 7.63; with `COc1c(Cl)c2c(c(OC)c1OC)-c1ccc(OC)c(=O)cc1[C@@H](NC(=S)NCCO)CC2`, 6.60.
